Counter-ions that a name gives are not always drawn. Some results are limits rather than exact numbers.

As usually defined, the CC50 is the concentration at which the toxic effect on the cells reaches its halfway point.

In this test the test system is BRCA-1 silenced HeLa cells (HeLa shBRCA1-GFP). Put plainly: Proliferation assay in BRCA-1 silenced HeLa cells. It counts as cell-based. Particulars: Homo sapiens; BRCA1 silenced HeLa cells, 168 hours; read-out: CC50 in the BRCA1 silenced HeLa cells. The protocol:
Proliferation Assay in BRCA-1 Silenced HeLa Cells
Compounds of the present invention were also tested in an anti-proliferative assay in matched pair BRCA1 wt and BRCA1-(shRNA) HeLa cells.
The assay is based on the ability of living cells to convert a redox dye (resazurin) into a fluorescent end product (resofurin). The amount of resofurin produced is directly proportional to the cell number.
HeLa shBRCA1-GFP—These are HeLa cells transduced at an MOI of 100 with a Lentivirus containing a shRNA against BRCA-1 and an expression cassette for GFP. BRCA-1 silencing is more than 80% as assessed by Taqman analysis and the cells stably express GFP.
HeLa THM-GFP—These are HeLa cells transduced at an MOI of 100 with a control vector not expressing any shRNA.
• Seed 300 cell/well in 96 wells viewplate black in 90 ul culture Medium*: • Incubate 4 hours at 37° C., 5% CO2 • Add 10 ul/well of 10× compound (5% DMSO in H2O) • Incubate for 168 hours at 37° C., 5% CO2 • Add 10 ul of Celltiter Blue solution (Promega, G8081) pre-diluted 1:1 in PBS1× • Incubate the mixture for 45′ at 37° C., 5% CO2 • Incubate 15′ at RT in the dark • Read plate at fluorimeter ex: 550 nm; em: 590 nm *Culture Medium: DMEM (GIBCO, 41966-029), 10% FCS (GIBCO, 10106-169), 0.1 mg/ml Penicillin-Streptomycin (GIBCO, 15140-114), 2 mM L-Glutamine (GIBCO, 3042190)
Regarding `Cc1c(Cc2ccc(F)c(C(=O)N3CC(=O)N(c4ccc(C#N)c(F)c4)[C@@H](C)C3)c2)n[nH]c(=O)c1C` [Example 174, 4-((2S)-4-{5-[(4,5-Dimethyl-6-oxo-1,6-dihydropyridazin-3-yl)methyl]-2-fluorobenzoyl}-2-methyl-6-oxopiperazin-1-yl)-2-fluorobenzonitrile], the CC50 is less than 0.05 µM.
As for `Cc1c(Cc2ccc(F)c(C(=O)N3CCN(C4CCOC4)C(=O)C3)c2)n[nH]c(=O)c1C` (stereo not shown) [Example 69, 6-(4-Fluoro-3-{[3-oxo-4-(tetrahydrofuran-3-yl)piperazin-1-yl]carbonyl}benzyl)-4,5-dimethyl-3-oxo-2,3-dihydropyridazin-1-ium trifluoroacetate], the CC50 was in the range of 0.05 to 0.5 µM.
Next, `Cc1c(Cc2ccc(F)c(C(=O)N3CCN(c4cncs4)C(=O)C3)c2)n[nH]c(=O)c1C` [Example 63, 3-(4-Fluoro-3-{[3-oxo-4-(1,3-thiazol-5-yl)piperazin-1-yl]carbonyl}benzyl)-4,5-dimethyl-6-oxo-1,6-dihydropyridazin-1-ium trifluoroacetate]: less than 0.05 µM; `Cc1c(Cc2ccc(F)c(C(=O)N3CC(=O)N(c4ccc(Cl)cc4)[C@H](C)C3)c2)n[nH]c(=O)c1C` [Example 194, 6-(3-{[(3R)-4-(4-Chlorophenyl)-3-methyl-5-oxopiperazin-1-yl]carbonyl}-4-fluorobenzyl)-4,5-dimethylpyridazin-3(2H)-one]: less than 0.05 µM.
With `Cc1c(Cc2ccc(F)c(C(=O)N3CCN(CC(C)C(F)(F)F)C(=O)C3)c2)n[nH]c(=O)c1C` (stereo not shown) [Example 45, 6-(4-Fluoro-3-{[3-oxo-4-(3,3,3-trifluoro-2-methylpropyl)piperazin-1-yl]carbonyl}benzyl)-4,5-dimethyl-3-oxo-2,3-dihydropyridazin-1-ium trifluoroacetate] the figure was less than 5 µM; with `Cc1c(Cc2ccc(F)c(C(=O)N3CCN(C4CCc5ccccc5C4)C(=O)C3)c2)n[nH]c(=O)c1C` (stereo not shown) [Example 70, 6-(4-Fluoro-3-{[3-oxo-4-(1,2,3,4-tetrahydronaphthalen-2-yl)piperazin-1-yl]carbonyl}benzyl)-4,5-dimethyl-3-oxo-2,3-dihydropyridazin-1-ium trifluoroacetate], less than 0.05 µM; with `Cc1c(Cc2ccc(F)c(C(=O)N3CC(=O)N4[C@@H](CCC[C@H]4C)C3)c2)n[nH]c(=O)c1C` (racemic) [Example 85, 6-{4-Fluoro-3-[(cis-6-methyl-4-oxooctahydro-2H-pyrido[1,2-a]pyrazin-2-yl)carbonyl]benzyl}-4,5-dimethyl-3-oxo-2,3-dihydropyridazin-1-ium trifluoroacetate], less than 0.05 µM.
Regarding `O=C(c1cc(Cc2cc(C(F)(F)F)c(=O)[nH]n2)ccc1F)N1CCN([C@@H]2CCCOC2)C(=O)C1` [Example 154, 6-[4-fluoro-3-({3-oxo-4-[(3R)-tetrahydro-2H-pyran-3-yl]piperazin-1-yl}carbonyl)benzyl]-4-(trifluoromethyl)pyridazin-3(2H)-one], the CC50 was less than 5 µM.
Next, `Cc1c(Cc2ccc(F)c(C(=O)N3CC(=O)N(c4cc(F)cc(C#N)c4)[C@H](C)C3)c2)n[nH]c(=O)c1C` [Example 202, 3-((2R)-4-{5-[(4,5-Dimethyl-6-oxo-1,6-dihydropyridazin-3-yl)methyl]-2-fluorobenzoyl}-2-methyl-6-oxopiperazin-1-yl)-5-fluorobenzonitrile]: less than 0.05 µM.
Next, `Cc1c(Cc2ccc(F)c(C(=O)N3CCN(c4ccc(F)c(F)c4)C(=O)C3)c2)n[nH]c(=O)c1C` [Example 11, 6-(3-{[4-(3,4-Difluorophenyl)-3-oxopiperazin-1-yl]carbonyl}-4-fluorobenzyl)-4,5-dimethyl-3-oxo-2,3-dihydropyridazin-1-ium trifluoroacetate]: less than 0.05 µM; `CCN1CCN(C(=O)c2cc(Cc3n[nH]c(=O)c(C)c3C)ccc2F)CC1=O` [Example 17, 6-{3-[(4-Ethyl-3-oxopiperazin-1-yl)carbonyl]-4-fluorobenzyl}-4,5-dimethylpyridazin-3(2H)-one trifluoroacetate]: 0.05 to 0.5 µM; `Cc1c(Cc2ccc(F)c(C(=O)N3CC(=O)N(c4ccc(Cl)c(F)c4)[C@@H](C)C3)c2)n[nH]c(=O)c1C` [Example 208, 6-(3-{[(3S)-4-(4-Chloro-3-fluorophenyl)-3-methyl-5-oxopiperazin-1-yl]carbonyl}-4-fluorobenzyl)-4,5-dimethylpyridazin-3(2H)-one]: less than 0.05 µM.
With `Cc1c(Cc2ccc(F)c(C(=O)N3CCN(c4cncnc4)C(=O)C3)c2)n[nH]c(=O)c1C` [Example 64, 3-{4-Fluoro-3-[(3-oxo-4-pyrimidin-5-ylpiperazin-1-yl)carbonyl]benzyl}-4,5-dimethyl-6-oxo-1,6-dihydropyridazin-1-ium trifluoroacetate] the figure was less than 5 µM.
For the compound `Cc1c(Cc2ccc(F)c(C(=O)N3CC(=O)N(c4cc(F)cc(F)c4)[C@H](C)C3)c2)n[nH]c(=O)c1C` [Example 193, 6-(3-{[(3R)-4-(3,5-Difluorophenyl)-3-methyl-5-oxopiperazin-1-yl]carbonyl}-4-fluorobenzyl)-4,5-dimethylpyridazin-3(2H)-one], the CC50 was less than 0.05 µM.
With `Cc1c(Cc2ccc(F)c(C(=O)N3CCN(C4CCCCC4)C(=O)C3)c2)n[nH]c(=O)c1C(F)(F)F` [Example 25, 3-{3-[(4-Cyclohexyl-3-oxopiperazin-1-yl)carbonyl]-4-fluorobenzyl}-4-methyl-6-oxo-5-(trifluoromethyl)-1,6-dihydropyridazin-1-ium trifluoroacetate], the cytotoxic concentration (CC50) was less than 0.05 µM.
In the case of `Cc1c(Cc2ccc(F)c(C(=O)N3CCN([C@H](C)C(F)(F)F)C(=O)C3)c2)n[nH]c(=O)c1C` [Example 200, 6-[4-Fluoro-3-({3-oxo-4-[(1R)-2,2,2-trifluoro-1-methylethyl]piperazin-1-yl}carbonyl)benzyl]-4,5-dimethylpyridazin-3(2H)-one], the CC50 was less than 0.05 µM.
As to `Cc1c(Cc2ccc(F)c(C(=O)N3CCN(C4CCCC4)C(=O)C3)c2)n[nH]c(=O)c1C` [Example 3, 6-{3-[(4-Cyclopentyl-3-oxopiperazin-1-yl)carbonyl]-4-fluorobenzyl}-4,5-dimethylpyridazin-3(2H)-one], the CC50 was less than 0.05 µM.
Next, `CCc1c(C)c(Cc2ccc(F)c(C(=O)N3CCN(C4CCCCC4)C(=O)C3)c2)n[nH]c1=O` [Example 29, 3-{3-[(4-Cyclohexyl-3-oxopiperazin-1-yl)carbonyl]-4-fluorobenzyl}-5-ethyl-4-methyl-6-oxo-1,6-dihydropyridazin-1-ium trifluoroacetate]: less than 0.05 µM; `Cc1c(Cc2ccc(F)c(C(=O)N3CCN(C4CCc5ccccc54)C(=O)C3)c2)n[nH]c(=O)c1C` (stereo not shown) [Example 100, 6-(3-{[4-(2,3-dihydro-1H-inden-1-yl)-3-oxopiperazin-1-yl]carbonyl}-4-fluorobenzyl)-4,5-dimethyl-3-oxo-2,3-dihydropyridazin-1-ium trifluoroacetate]: less than 0.05 µM; `Cc1c(Cc2ccc(F)c(C(=O)N3CCN(c4cccc(Cl)c4)C(=O)C3)c2)n[nH]c(=O)c1C` [Example 9, 6-(3-{[4-(3-Chlorophenyl)-3-oxopiperazin-1-yl]carbonyl}-4-fluorobenzyl)-4,5-dimethyl-3-oxo-2,3-dihydropyridazin-1-ium trifluoroacetate]: less than 0.05 µM.
As to `Cc1c(Cc2ccc(F)c(C(=O)N3CC(=O)N(C4CCCOC4)C(C)C3)c2)n[nH]c(=O)c1C` (stereo not shown) [Example 129, 6-(4-Fluoro-3-{[3-methyl-5-oxo-4-(tetrahydro-2h-pyran-3-yl)piperazin-1-yl]carbonyl}benzyl)-4,5-dimethylpyridazin-3(2H)-one trifluoroacetate], the CC50 lay in the range of 0.05 to 0.5 µM.
Next, `Cc1c(Cc2ccc(F)c(C(=O)N3CC(=O)N(C4CCC4)[C@H](C)C3)c2)n[nH]c(=O)c1C` [Example 175, 6-(3-{[(3R)-4-Cyclobutyl-3-methyl-5-oxopiperazin-1-yl]carbonyl}-4-fluorobenzyl)-4,5-dimethylpyridazin-3(2H)-one]: less than 0.05 µM; `Cc1c(Cc2ccc(F)c(C(=O)N3CC(=O)N(C4COc5ccccc5C4)C(C)C3)c2)n[nH]c(=O)c1C` (stereo not shown) [Example 132, 6-(3-{[4-(3,4-Dihydro-2H-chromen-3-yl)-3-methyl-5-oxopiperazin-1-yl]carbonyl}-4-fluorobenzyl)-4,5-dimethylpyridazin-3(2H)-one trifluoroacetate]: less than 0.05 µM; `Cc1c(Cc2ccc(F)c(C(=O)N3CCN(c4csc5ccccc45)C(=O)C3)c2)n[nH]c(=O)c1C` [Example 62, 3-(3-{[4-(1-Benzothien-3-yl)-3-oxopiperazin-1-yl]carbonyl}-4-fluorobenzyl)-4,5-dimethyl-6-oxo-1,6-dihydropyridazin-1-ium trifluoroacetate]: 0.05 to 0.5 µM.
With `Cc1c(Cc2ccc(F)c(C(=O)N3CCN(c4ccccc4Cl)C(=O)C3)c2)n[nH]c(=O)c1C` [Example 14, 6-(3-{[4-(2-Chlorophenyl)-3-oxopiperazin-1-yl]carbonyl}-4-fluorobenzyl)-4,5-dimethyl-3-oxo-2,3-dihydropyridazin-1-ium trifluoroacetate], the CC50 was in the range of 0.05 to 0.5 µM.

These data come from patent publication US8268827B2, “Pyridazinone derivatives as PARP inhibitors” (Istituto di Ricerche di Biologia Molecolare P. Angeletti …, priority 2007, dated 2012).
